Results: patent publication US11786570B2, “Dermatological product” (SYMRISE AG, priority 2018, dated 2023)
Entries after “also recorded” stand apart in the source; their conditions may differ. Marks after values point to notes of the source that are not given here.

Tests used:
human sebaceous glands [1] = test: Total lipid (sebum) content of micro-dissected ex vivo human sebaceous glands in organ culture, lipids normalized on proteins; format: cell-based; conditions: for Reduction of lipids at day 6 versus untreated; Total lipid reduction: Example 4; for Reduction of lipids at day 6 versus untreated; Lipid reduction: Example 8; for Effect on total lipid / sebum content of sebaceous glands, in words: day 6
Protocol: Organ culture of human sebaceous glands micro-dissected from human skin explants was performed to evaluate the modulatory activity of Tetraselmis suecica extract prepared according to the description given in Example 1 on the sebum level. The extract is employed in the dried form.
After removal of the epidermis of the full thickness skin sample, the sebaceous glands were carefully removed using micro-scissors and scalpel. The micro-dissected sebaceous glands were then pooled in groups of 8 and cultured up to day 6 in a 24 well plate immersed in 500 μl of modified Williams'E medium. After 24 hours of acclimation the culture medium was changed and substituted with the medium containing the extract to be tested. The medium was renewed at day 3 and 5 of culture. At day 6 the glands were collected and used for the quantification of lipids and proteins.
To do so, each sebaceous glands group was homogenized in 100 μl of isopropyl alcohol to extract lipids and let the proteins undissolved. After centrifugation the supernatant containing the extracted sebum was collected and analyzed. The remaining pellet was dried using a vacuum dry evaporator and then minced in presence of 50 μl of protein lysis buffer. After an appropriate incubation time, this extractive mixture was centrifuged, and the supernatant was collected and analyzed. The lipids dissolved in isopropyl alcohol and the proteins dissolved in the lysis buffer were quantified by infrared spectroscopy using a Direct Detect IR Spectrometer (Millipore). The total lipid amount was obtained by normalizing the quantified lipids upon the quantified proteins (i.e. mg of lipids/mg of proteins). The amounts of normalized lipids, i.e. the sebum produced by each group of sebaceous glands, obtained from the treated groups was compared to that of the untreated control group and the modulatory activity was calculated in percentage. As positive control, a 5 μM Capsaicin treatment was included in the experimental design. Capsaicin is an active component of chili peppers suitable to inhibit sebogenesis [T6th et al., J. Invest. Derm. (2009), 129: 329-339]. For statistical analysis, differences among groups were evaluated by one-way anova with permutation test followed by Dunnett's permutation test.
To evaluate donor responsiveness and interindividual variability the extract was tested on sebaceous glands obtained from skin samples of three different donors.
The Organ culture of human sebaceous glands micro-dissected from human skin explants was performed to evaluate the modulatory activity of mannitol on the sebum level.
After removal of the epidermis of the full thickness skin sample, the sebaceous glands were carefully removed using micro-scissors and scalpel. The micro-dissected sebaceous glands were then pooled in groups of 8 and cultured up to day 6 in a 24 well plate immersed in 500 μl of modified Williams'E medium. After 24 hours of acclimation the culture medium was changed and substituted with the medium containing the sample to be tested. The medium was renewed at day 3 and 5 of culture. At day 6 the glands were collected and used for the quantification of lipids and proteins.
To do so, each sebaceous glands group was homogenized in 100 μl of isopropyl alcohol to extract lipids and let the proteins undissolved. After centrifugation the supernatant containing the extracted sebum was collected and analyzed. The remaining pellet was dried using a vacuum dry evaporator and then minced in presence of 50 μl of protein lysis buffer. After an appropriate incubation time, this extractive mixture was centrifuged, and the supernatant was collected and analyzed. The lipids dissolved in isopropyl alcohol and the proteins dissolved in the lysis buffer were quantified by infrared spectroscopy using a Direct Detect IR Spectrometer (Millipore). The total lipid amount was obtained by normalizing the quantified lipids upon the quantified proteins (i.e. mg of lipids/mg of proteins). […]

human sebaceous glands [2] = test: Resazurin viability test of micro-dissected human sebaceous glands, day 6 versus day 1; format: cell-based
Protocol: To better understand the response to the extract, a viability test was performed in parallel at day 1 and day 6 of organ culture. Resazurin was added to the wells (1:11) and let incubate for 2 hours. At the end of the incubation an aliquot of the medium was read with a fluorometer (excitation: 560 nm, emission: 590 nm). The medium was then replaced with normal medium for 2 hours in order to eliminate residual resazurin. After this the medium was replaced again with medium containing the test samples. The viability in each well was measured as the difference in percentage between day 6 and day 1.

CLDN7 [Claudin 7] = test: Gene expression by RT-qPCR in nHEK keratinocytes; format: cell-based, human
Protocol: Neonatale humane epidermal keratinocytes (nHEK) were cultivated in EpiLife medium (Gibco) including HKGS-Kit (Gibco) at 5% CO2 at 37° C. according to the supplier instructions. […] Genomic target expression levels in extract treated cells were measured by RT-qPCR comparing to medium treatment. RNA isolation took place using RNeasy® Mini Kit, Qiagen. Total RNA concentrations were measured using μCuvetteG 1.0 and BioPhotometer, Eppendorf by measuring the absorption at 260 nm. Purity control values, like […]/280 and E 260/230 were calculated simultaneously. Reverse transcription was done using high capacity RNA-to-cDNA Kit, Applied Biosystems, according to the supplier instructions. Samples were treated in the PCR Thermocycler, Biometra. For the fast real-time PCR, cDNA was diluted with RNase-free water and TaqManTM Fast Universal PCR Master Mix, Applied biosystems. Quantitaive Real-Time PCR was done using StepOne Plus Fast Real Time PCR Instrument, Applied biosystems. Analysis was done with StepOne-Software and 2-ΔCT Method (normalized to endogenous control HTRP1 expression).

CGN [Cingulin] = test: Gene expression by RT-qPCR in nHEK keratinocytes; format: cell-based, human; conditions: 0.002%
Protocol: (§1) Neonatale humane epidermal keratinocytes (nHEK) were cultivated in EpiLife medium (Gibco) including HKGS-Kit (Gibco) at 5% CO2 at 37° C. according to the supplier instructions.
(§2) […] Genomic target expression levels in extract treated cells were measured by RT-qPCR comparing to medium treatment.
(§3) RNA isolation took place using RNeasy® Mini Kit, Qiagen. Total RNA concentrations were measured using μCuvetteG 1.0 and BioPhotometer, Eppendorf by measuring the absorption at 260 nm. Purity control values, like E260/280 and E 260/230 were calculated simultaneously. Reverse transcription was done using high capacity RNA-to-cDNA Kit, Applied Biosystems, according to the supplier instructions. Samples were treated in the PCR Thermocycler, Biometra.
(§4) For the fast real-time PCR, cDNA was diluted with RNase-free water and TaqMan™ Fast Universal PCR Master Mix, Applied biosystems. Quantitaive Real-Time PCR was done using StepOne Plus Fast Real Time PCR Instrument, Applied biosystems. Analysis was done with StepOne-Software and 2-ΔCT Method (normalized to endogenous control HTRP1 expression).
(§5) For upregulations RQ values ≥2.0 and for downregulations RQ values <0.5 are considered to be relevant.

CLDN1 [Claudin 1] = test: Gene expression by RT-qPCR in nHEK keratinocytes; format: cell-based, human; conditions: 0.002%
Protocol: as §1, §2, §3, §4, §5

OCLN [Occludin] = test: Gene expression by RT-qPCR in nHEK keratinocytes; format: cell-based, human; conditions: 0.002%
Protocol: as §1, §2, §3, §4, §5

[3] = Water solubility (statement); format: physicochemical

SMILES | Reduction of lipids at day 6 versus untreated (human sebaceous glands [1]; Example 6, 0.05 ppm) [%] | Reduction of lipids at day 6 versus untreated (human sebaceous glands [1]; Example 6, 0.5 ppm) [%] | Effect on total lipid / sebum content of sebaceous glands, in words (human sebaceous glands [1]; ex vivo human sebaceous glands) | Viability (human sebaceous glands [2]; Example 6, 0.05 ppm) [%] | Viability (human sebaceous glands [2]; Example 6, 0.5 ppm) [%] | Reduction of lipids at day 6 versus untreated (human sebaceous glands [1]; Example 7, 0.05 ppm) [%] | Reduction of lipids at day 6 versus untreated (human sebaceous glands [1]; Example 7, 0.5 ppm) [%] | Viability (human sebaceous glands [2]; Example 7, 0.05 ppm) [%] | Viability (human sebaceous glands [2]; Example 7, 0.5 ppm) [%] | further results
COc1cc(CNC(=O)CCCC/C=C/C(C)C)ccc1O [Capsaicin, reference compound] | – | – | – | – | – | – | – | – | – | Reduction of lipids at day 6 versus untreated; Total lipid reduction (human sebaceous glands [1]; 5 μM (1.5 ppm)): −25%; Reduction of lipids at day 6 versus untreated (human sebaceous glands [1]; Example 6, 5 μM (1.5 ppm)): −21%; Reduction of lipids at day 6 versus untreated (human sebaceous glands [1]; Example 7, 5 μM (1.5 ppm)): −20%; Reduction of lipids at day 6 versus untreated; Lipid reduction (human sebaceous glands [1]; 5 μM (1.5 ppm)): 13* %; Viability (human sebaceous glands [2]; Example 3, Donor 1, 5 μM (1.5 ppm)): 92%; Viability (human sebaceous glands [2]; Example 3, Donor 2, 5 μM (1.5 ppm)): 99%; Viability (human sebaceous glands [2]; Example 3, Donor 3, 5 μM (1.5 ppm)): 85%; Viability (human sebaceous glands [2]; Example 4, 5 μM (1.5 ppm)): 82%; Viability (human sebaceous glands [2]; Example 6, 5 μM (1.5 ppm)): 89%; Viability (human sebaceous glands [2]; Example 7, 5 μM (1.5 ppm)): 91%; Viability (human sebaceous glands [2]; Example 8, 5 μM (1.5 ppm)): 95%
OC[C@@H](O)[C@@H](O)CO [erythritol, meso-Erythritol] | −26 | −36 | significantly reduces the lipid content | 82 | 77 | – | – | – | – | –
O[C@H]1[C@H](O)[C@@H](O)[C@H](O)[C@@H](O)[C@H]1O [inositol, myo-Inosiitol] | – | – | significantly reduce the lipid content | – | – | −32 | −10 | 91 | 97 | –
OC[C@@H](O)[C@@H](O[C@@H]1O[C@H](CO)[C@H](O)[C@H](O)[C@H]1O)[C@H](O)[C@@H](O)CO [lactitol, Lactitol] | – | – | significantly reduce the lipid content | – | – | −22 | −22 | 99 | 100 | –
OC[C@@H](O)[C@@H](O[C@H]1O[C@H](CO)[C@@H](O)[C@H](O)[C@H]1O)[C@H](O)[C@@H](O)CO [maltitol, Maltitol] | – | – | significantly reduce the lipid content | – | – | −44 | −39 | 79 | 80 | –
OC[C@@H](O)[C@@H](O)[C@H](O)[C@H](O)CO [mannitol, Mannitol] | – | – | significantly reduces the lipid content; also recorded: significantly reduced the sebum content | – | – | – | – | – | – | Reduction of lipids at day 6 versus untreated; Total lipid reduction (human sebaceous glands [1]; 0.03 ppm): −17%; Sebum/lipid reducing efficacy compared with positive control 5 μM capsaicin, in words (human sebaceous glands [1]; ex vivo human sebaceous glands): less effectively than 5 μM capsaicin; Viability (human sebaceous glands [2]; Example 4, 0.03 ppm): 81%; claudin 7 gene regulation, in words (CLDN7 [Claudin 7]): upregulate; RQ value (CLDN7 [Claudin 7]; 0.002%): 2.0; RQ value (CGN [Cingulin]): 1.0; RQ value (CLDN1 [Claudin 1]): 0.5; RQ value (OCLN [Occludin]): 1.0
NC(=O)c1cccnc1 [niacinamide, Niacinamide, reference compound] | – | – | did not show a relevant lipid reducing activity | – | – | – | – | – | – | Reduction of lipids at day 6 versus untreated; Lipid reduction (human sebaceous glands [1]; 0.5 ppm): 2%; Viability (human sebaceous glands [2]; Example 8, 0.5 ppm): 100%; water solubility, in words [3]: readily water soluble
OC[C@@H](O)[C@@H](O)[C@H](O)[C@@H](O)CO [sorbitol, D-Sorbitol] | −16 | −40 | significantly reduces the lipid content | 80 | 78 | – | – | – | – | Reduction of lipids at day 6 versus untreated; Lipid reduction (human sebaceous glands [1]; 0.5 ppm): 11* %; Effect on total lipid / sebum content of sebaceous glands, in words (human sebaceous glands [1]; ex vivo human sebaceous glands, listed as Sorbitol): exhibited efficacy in the expected range when compared to capsaicin; Viability (human sebaceous glands [2]; Example 8, 0.5 ppm): 95%
OC[C@@H](O)[C@H](O)CO [threitol, D-Threitol] | – | – | significantly reduce the lipid content | – | – | −31 | −47 | 84 | 82 | –
OC[C@@H](O)[C@H](O)[C@@H](O)CO [xylitol, Xylitol] | −23 | −46 | significantly reduces the lipid content | 86 | 80 | – | – | – | – | –
